Data on 20 molecules can be found in patent US12012417B2, “N-substituted tetrahydrothienopyridine derivatives and uses thereof” (NOVARTIS AG, priority 2018, dated 2024).

Assay [1] deals with Dengue 1 virus MY97-10245. The assay is described as follows: High-content imaging cell-based flavivirus immunodetection (HCl-CFI) assay, Dengue 1. The settings on record: Dengue virus, A549, 48 h, read-out: Dengue 1 virus MY97-10245 in A549 using HCl [Inhibitor/IC50] Qualified AC50.
Assay [2] relates to Dengue 2 virus MY97-10340. In words: High-content imaging cell-based flavivirus immunodetection (HCl-CFI) assay, Dengue 2. The settings on record: Dengue virus, A549, 48 h. The method, boiled down: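 A549 cells infected at MOI 0.3, treated with 3-fold, 10-point compound dilutions for 48 h. After paraformaldehyde fixation, viral E protein immunostained with 4G2 antibody and nuclei counterstained; imaged by high-content imaging. EC50 = concentration reducing E protein expression by 50%, from dose-response curves.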

Assay [3] concerns Dengue 3 virus MY05-34640-WT-C6/36. The assay is described as follows: High-content imaging cell-based flavivirus immunodetection (HCl-CFI) assay, Dengue 3. Particulars: Dengue virus, A549, 48 h, read-out: Dengue 3 virus MY05-34640-WT-C6/36 in A549 using HCl [Inhibitor/IC50] Qualified AC50.
Assay [4] concerns Dengue 4 virus MY01-22713. In words: High-content imaging cell-based flavivirus immunodetection (HCl-CFI) assay, Dengue 4. Particulars: Dengue virus, A549, 48 h.
[5] abbreviates: read-out: Dengue 2 virus MY97-10340 in A549 using HCl [Inhibitor/IC50] Qualified AC50, A549 cells, MOI 0.3, 48 h, viral E protein expression.
[6] abbreviates: read-out: Dengue 4 virus MY01-22713 in A549 using HCl [Inhibitor/IC50] Qualified AC50, A549 cells, 48 h, viral E protein expression.

Counter-ions that a name gives are not always drawn. Like-named read-outs stand apart in the source and are kept apart here.

In the case of `CC1Cc2sc(NC(=O)Cc3ccc(S(=O)(=O)NCC4CCCC4)cc3)c(C#N)c2CN1CC1CCCC1` (centres unmarked) [Example 61, N-(3-cyano-5-(cyclopentylmethyl)-6-methyl-4,5,6,7-tetrahydrothieno[3,2-c]pyridin-2-yl)-2-(4-(N-(cyclopentylmethyl)sulfamoyl)phenyl)acetamide], the EC50 in assay [1] is over 1000 nM; in assay [2] (setting [5]), 100 to 1000 nM; in assay [3], over 1000 nM; in assay [4] (setting [6]), over 1000 nM.

Turning to `N#Cc1c(NC(=O)Cc2ccc3c(c2)CCS3(=O)=O)sc2c1CN(Cc1cccc(F)c1)CC2` [Example 33, N-(3-cyano-5-(3-fluorobenzyl)-4,5,6,7-tetrahydrothieno[3,2-c]pyridin-2-yl)-2-(1,1-dioxido-2,3-dihydrobenzo[b]thiophen-5-yl)acetamide], the EC50 was 100 to 1000 nM in assay [1], 100 to 1000 nM in assay [2] (setting [5]), under 100 nM in assay [3] and under 100 nM in assay [4] (setting [6]).

For the molecule `CC1Cc2sc(NC(=O)Cc3ccc(S(N)(=O)=O)cc3)c(C#N)c2CN1C(C)c1ccccc1` (single isomer, unassigned) [Example 54, N-(3-cyano-6-methyl-5-(1-phenylethyl)-4,5,6,7-tetrahydrothieno[3,2-c]pyridin-2-yl)-2-(4-sulfamoylphenyl)acetamide], the EC50 in assay [1] is 100 to 1000 nM; in assay [2] (setting [5]), under 100 nM; in assay [3] it was under 100 nM; in assay [4] (setting [6]), under 100 nM.

In the case of `Cc1cccc(CN2CCc3c(sc(NC(=O)Cc4ccc(S(N)(=O)=O)cc4)c3C#N)C2)c1C` [Example 95, N-(3-cyano-6-(2,3-dimethylbenzyl)-4,5,6,7-tetrahydrothieno[2,3-c]pyridin-2-yl)-2-(4-sulfamoylphenyl) acetamide], the EC50 in assay [1] was 100 to 1000 nM; in assay [2] (setting [5]) it was 100 to 1000 nM; in assay [3], under 100 nM; in assay [4] (setting [6]), under 100 nM.

As for `COc1cc(CC(=O)Nc2sc3c(c2C#N)C(C)(C)N(Cc2ccccc2)CC3)ccc1S(N)(=O)=O` [Example 49, N-(5-benzyl-3-cyano-4,4-dimethyl-4,5,6,7-tetrahydrothieno[3,2-c]pyridin-2-yl)-2-(3-methoxy-4-sulfamoylphenyl)acetamide], the EC50 in assay [1] is over 1000 nM; in assay [2] (setting [5]), 100 to 1000 nM; in assay [3] it was 100 to 1000 nM; in assay [4] (setting [6]) it was over 1000 nM.

In the case of `CC1Cc2sc(NC(=O)Cc3ccc(S(N)(=O)=O)cc3)c(C#N)c2CN1CC1CCC1` (centres unmarked) [Example 60, N-(3-cyano-5-(cyclobutylmethyl)-6-methyl-4,5,6,7-tetrahydrothieno[3,2-c]pyridin-2-yl)-2-(4-sulfamoylphenyl)acetamide], the EC50 in assay [1] was over 1000 nM; in assay [2] (setting [5]) it was 100 to 1000 nM; in assay [3], 100 to 1000 nM; in assay [4] (setting [6]), 100 to 1000 nM.

`COCCOc1cccc(CC(=O)Nc2sc3c(c2C#N)CN(CC2CCCCC2)CC3)c1` [Example 15, N-(3-cyano-5-(cyclohexylmethyl)-4,5,6,7-tetrahydrothieno[3,2-c]pyridin-2-yl)-2-(3-(2-methoxyethoxy)phenyl)acetamide]: the EC50 in assay [1], in assay [2] (setting [5]), in assay [3] and in assay [4] (setting [6]) was 100 to 1000 nM in each case.

Consider `N#Cc1c(NC(=O)Cc2ccc(S(N)(=O)=O)cc2)sc2c1CN(CC1CC(F)(F)C1)CC2` [Example 2, N-(3-cyano-5-((3,3-difluorocyclobutyl)methyl)-4,5,6,7-tetrahydrothieno[3,2-c]pyridin-2-yl)-2-(4-sulfamoylphenyl)acetamide], for which the EC50 in assay [1] was over 1000 nM; in assay [2] (setting [5]), 100 to 1000 nM; in assay [3] it was 100 to 1000 nM; in assay [4] (setting [6]) it was 100 to 1000 nM.

Consider `COc1cc(C#N)cc(CC(=O)Nc2sc3c(c2C#N)CN(Cc2cccc(F)c2)CC3)c1` [Example 38, N-(3-cyano-5-(3-fluorobenzyl)-4,5,6,7-tetrahydrothieno[3,2-c]pyridin-2-yl)-2-(3-cyano-5-methoxyphenyl)acetamide], for which the EC50 was over 1000 nM in assay [1], 100 to 1000 nM in assay [2] (setting [5]), 100 to 1000 nM in assay [3] and 100 to 1000 nM in assay [4] (setting [6]).

Turning to `COCCOc1cc(CC(=O)Nc2sc3c(c2C#N)CN(Cc2cccc(F)c2)C(C)C3)ccc1S(N)(=O)=O` (centres unmarked) [Example 86, N-(3-cyano-5-(3-fluorobenzyl)-6-methyl-4,5,6,7-tetrahydrothieno[3,2-c]pyridin-2-yl)-2-(3-(2-methoxyethoxy)-4-sulfamoylphenyl)acetamide], the EC50 in assay [1] is 100 to 1000 nM; in assay [2] (setting [5]) it was under 100 nM; in assay [3] it was under 100 nM; in assay [4] (setting [6]) it was under 100 nM.

Consider `CC1Cc2sc(NC(=O)Cc3ccc(S(=O)(=O)NCC4CC(F)(F)C4)cc3)c(C#N)c2CN1CC1CC(F)(F)C1` (centres unmarked) [Example 57, N-(3-cyano-5-((3,3-difluorocyclobutyl)methyl)-6-methyl-4,5,6,7-tetrahydrothieno[3,2-c]pyridin-2-yl)-2-(4-(N-((3,3-difluorocyclobutyl)methyl)sulfamoyl)phenyl)acetamide], for which the EC50 in assay [1] was over 1000 nM; in assay [2] (setting [5]) it was 100 to 1000 nM; in assay [3], over 1000 nM; in assay [4] (setting [6]), 100 to 1000 nM.

Regarding `COc1cccc(CC(=O)Nc2sc3c(c2C#N)CN(Cc2cccc(F)c2)CC3)c1OC` [Example 34, N-(3-cyano-5-(3-fluorobenzyl)-4,5,6,7-tetrahydrothieno[3,2-c]pyridin-2-yl)-2-(2,3-dimethoxyphenyl)acetamide], the EC50 in assay [1] is over 1000 nM; in assay [2] (setting [5]) it was over 1000 nM; in assay [3], 100 to 1000 nM; in assay [4] (setting [6]), 100 to 1000 nM.

Take `COc1cc(CC(=O)Nc2sc3c(c2C#N)CN(CC2CC(F)(F)C2)CC3)ccc1S(N)(=O)=O` [Example 50, N-(3-cyano-5-((3,3-difluorocyclobutyl)methyl)-4,5,6,7-tetrahydrothieno[3,2-c]pyridin-2-yl)-2-(3-methoxy-4-sulfamoylphenyl)acetamide]: the EC50 in assay [1], in assay [2] (setting [5]), in assay [3] and in assay [4] (setting [6]) was 100 to 1000 nM throughout.

In the case of `COP(C)(=O)c1ccc(CC(=O)Nc2sc3c(c2C#N)CN(Cc2cccc(F)c2)CC3)cc1` (centres unmarked) [Example 44, Methyl (4-(2-((3-cyano-5-(3-fluorobenzyl)-4,5,6,7-tetrahydrothieno[3,2-c]pyridin-2-yl)amino)-2-oxoethyl)phenyl)(methyl)phosphinate], the EC50 in assay [1] is over 1000 nM; in assay [2] (read-out: Dengue 2 virus MY97-10340 in A549 using HCl [Inhibitor/IC50] Qualified AC50), 100 to 1000 nM; in assay [3], 100 to 1000 nM; in assay [4] (read-out: Dengue 4 virus MY01-22713 in A549 using HCl [Inhibitor/IC50] Qualified AC50), 100 to 1000 nM.

Take `N#Cc1c(NC(=O)Cc2ccc(S(=O)(=O)C(F)F)cc2)sc2c1CN(CC1CCCCC1)CC2` [Example 11, N-(3-cyano-5-(cyclohexylmethyl)-4,5,6,7-tetrahydrothieno[3,2-c]pyridin-2-yl)-2-(4-((difluoromethyl)sulfonyl)phenyl)acetamide]: the EC50 was under 100 nM in assay [1], 100 to 1000 nM in assay [2] (setting [5]), under 100 nM in assay [3] and under 100 nM in assay [4] (setting [6]).

With `CC(c1ccccc1)N1CCc2c(sc(NC(=O)Cc3ccc(S(N)(=O)=O)cc3)c2C#N)C1` (centres unmarked) [Example 90, N-(3-cyano-6-(1-phenylethyl)-4,5,6,7-tetrahydrothieno[2,3-c]pyridin-2-yl)-2-(4-sulfamoylphenyl)-acetamide hydrochloride], the EC50 in assay [1] was over 1000 nM; in assay [2] (setting [5]), 100 to 1000 nM; in assay [3] it was 100 to 1000 nM; in assay [4] (setting [6]) it was 100 to 1000 nM.

With `N#Cc1c(NC(=O)Cc2ccc3c(c2)CNC3)sc2c1CN(CC1CCCCC1)CC2` [Example 20, N-(3-cyano-5-(cyclohexylmethyl)-4,5,6,7-tetrahydrothieno[3,2-c]pyridin-2-yl)-2-(isoindolin-5-yl)acetamide], the EC50 in assay [1] is over 1000 nM; in assay [2] (setting [5]), 100 to 1000 nM; in assay [3], over 1000 nM; in assay [4] (setting [6]), over 1000 nM.

Turning to `Cc1cccc(CN2CCc3c(sc(NC(=O)Cc4ccc(S(N)(=O)=O)cc4)c3C#N)C2)c1` [Example 102, N-(3-cyano-6-(3-methylbenzyl)-4,5,6,7-tetrahydrothieno[2,3-c]pyridin-2-yl)-2-(4-sulfamoylphenyl)acetamide], the EC50 is over 1000 nM in assay [1], 100 to 1000 nM in assay [2] (setting [5]), 100 to 1000 nM in assay [3] and 100 to 1000 nM in assay [4] (setting [6]).

As to `N#Cc1c(NC(=O)Cc2ccc(S(N)(=O)=O)cc2)sc2c1CCN(Cc1ccccc1F)C2` [Example 99, N-(3-cyano-6-(2-fluorobenzyl)-4,5,6,7-tetrahydrothieno[2,3-c]pyridin-2-yl)-2-(4-sulfamoylphenyl)acetamide], the EC50 in assay [1] was over 1000 nM; in assay [2] (setting [5]) it was 100 to 1000 nM; in assay [3] it was 100 to 1000 nM; in assay [4] (setting [6]), 100 to 1000 nM.

With `COc1cc(CC(=O)N(C)c2sc3c(c2C#N)CN(CC2CCCCC2)CC3)ccc1S(N)(=O)=O` [Example 48, N-(3-cyano-5-(cyclohexylmethyl)-4,5,6,7-tetrahydrothieno[3,2-c]pyridin-2-yl)-2-(3-methoxy-4-sulfamoylphenyl)-N-methylacetamide], the EC50 in assay [1], in assay [2] (setting [5]), in assay [3] and in assay [4] (setting [6]) was over 1000 nM each time.
